# Reference: the supplement of paper PMC11061612
# What was measured:
# Assay in all cases: combination Emax (second highest fraction inhibited in the dose matrix, 72 h); higher = more inhibition; extreme values may be limits of the assay
# [1] = tested on: CAL-148 (Breast Carcinoma)
# In short: (§1)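 Cell lines grown in DMEM/F12 or RPMI with 10% FBS were plated in 1536-well plates and held 24 hours at 37°C, 5% CO2 before 72 hours of exposure to two-drug dose matrices, with DMSO typically at 0.2%. CellTiter-Glo 2.0 luminescence gave viability, which was converted to inhibition. Vehicle wells were set to 0 and blank wells to 1. Combination Emax is the second-highest inhibition in the matrix, and Bliss excess is the observed combination effect minus the expected EA + EB − EA·EB, where EA and EB are the single-agent effects.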
# [2] = tested on: Hs-578-T (Breast Carcinoma)
# In short: as §1
# T98G (Glioblastoma) = tested on: T98G (Glioblastoma)
# In short: as §1
# KELLY (Neuroblastoma) = tested on: KELLY (Neuroblastoma)
# In short: as §1
# [3] = tested on: HT-1376 (Bladder Carcinoma)
# In short: as §1
# [4] = tested on: TE-9 (Esophageal Squamous Cell Carcinoma)
# In short: as §1
# [5] = tested on: CCRF-CEM (T-Lymphoblastic Leukemia)
# In short: as §1
# [6] = tested on: TE-15 (Esophageal Squamous Cell Carcinoma)
# In short: as §1
# [7] = tested on: Calu-3 (Lung Adenocarcinoma)
# In short: as §1
# [8] = tested on: RO82-W-1 (Thyroid Gland Carcinoma)
# In short: as §1
# [9] = tested on: UM-UC-3 (Bladder Carcinoma)
# In short: as §1
# [10] = tested on: HO-1-N-1 (Oral Cavity Carcinoma)
# In short: as §1
# [11] = tested on: KURAMOCHI (Ovarian Carcinoma)
# In short: as §1
# HOS (Osteosarcoma) = tested on: HOS (Osteosarcoma)
# In short: as §1
# [12] = tested on: Ramos-2G6-4C10 (Burkitt's Lymphoma)
# In short: as §1
# [13] = tested on: ME-1 (Acute Myeloid Leukemia)
# In short: as §1
# [14] = tested on: CaR-1 (Colorectal Carcinoma)
# In short: as §1
# [15] = tested on: LB831-BLC (Bladder Carcinoma)
# In short: as §1
# [16] = tested on: NCI-H2085 (Non-Small Cell Lung Carcinoma)
# In short: as §1
# [17] = tested on: NCI-H82 (Small Cell Lung Carcinoma)
# In short: as §1
Structure (SMILES),combination Emax [1],combination Emax [2],combination Emax (T98G (Glioblastoma)),combination Emax (KELLY (Neuroblastoma)),combination Emax [3],combination Emax [4],combination Emax [5],combination Emax [6],combination Emax [7],combination Emax [8],combination Emax [9],combination Emax [10],combination Emax [11],combination Emax (HOS (Osteosarcoma)),combination Emax [12],combination Emax [13],combination Emax [14],combination Emax [15],combination Emax [16],combination Emax [17]
"Cc1c2c(nn1C)CSCc1cc(n(C)n1)CSc1cc(c3ccccc3c1)OCCCc1c(C(=O)O)n(C)c3c-2c(Cl)ccc13 [AZD5991] + CC(=O)O[C@H]1C(=O)[C@@]2(C)[C@H]([C@H](OC(=O)c3ccccc3)[C@]3(O)C[C@H](OC(=O)[C@H](O)[C@@H](NC(=O)c4ccccc4)c4ccccc4)C(C)=C1C3(C)C)[C@]1(OC(C)=O)CO[C@@H]1C[C@@H]2O [Paclitaxel] (first compound max 1 µM, 7x7, partner max 3 µM)",0.81,0.988,0.883,1,0.0587,0.789,0.992,0.998,0.346,0.401,0.745,1,0.539,0.964,1,0.715,0.741,0.733,0.743,0.997
"Cc1c2c(nn1C)CSCc1cc(n(C)n1)CSc1cc(c3ccccc3c1)OCCCc1c(C(=O)O)n(C)c3c-2c(Cl)ccc13 [AZD5991] + CS(=O)(=O)CCNCc1ccc(-c2ccc3ncnc(Nc4ccc(OCc5cccc(F)c5)c(Cl)c4)c3c2)o1 [Lapatinib] (first compound max 1 µM, 7x7, partner max 10 µM)",0.492,0.833,0.412,1,0.33,0.193,0.594,0.764,0.895,0.141,0.169,0.962,0.674,0.303,0.996,0.646,0.432,0.55,0.47,0.963
"Cc1c2c(nn1C)CSCc1cc(n(C)n1)CSc1cc(c3ccccc3c1)OCCCc1c(C(=O)O)n(C)c3c-2c(Cl)ccc13 [AZD5991] + Nc1ccn([C@@H]2O[C@H](CO)[C@@H](O)C2(F)F)c(=O)n1 [Gemcitabine] (first compound max 1 µM, 7x7, partner max 0.3 µM)",0.929,0.663,0.5,1,0.215,0.343,0.987,0.931,0.534,0.0885,0.832,0.994,0.491,0.823,0.994,0.676,0.629,0.677,0.203,0.972
"C[C@@H]1COCCN1c1cc(C2([S@](C)(=N)=O)CC2)nc(-c2ccnc3[nH]ccc23)n1 [AZD6738] + C1CC(C1)(C(=O)[O-])C(=O)[O-].N.N.[Pt+2] [Carboplatin] (first compound max 10 µM, 7x7, partner max 10 µM)",0.818,0.69,0.886,0.944,0.454,0.264,0.977,0.857,0.555,0.151,0.398,0.779,0.636,0.668,0.88,0.348,0.385,0.39,0.381,0.823
"Cc1cc2ncnn2cc1Nc1ncc2c(n1)n(C1CCOCC1)c(=O)n2C [AZD7648] + COc1cc([C@@H]2c3cc4c(cc3[C@@H](O[C@@H]3O[C@@H]5CO[C@@H](C)O[C@H]5[C@H](O)[C@H]3O)[C@H]3COC(=O)[C@H]23)OCO4)cc(OC)c1O [Etoposide] (first compound max 10 µM, 7x7, partner max 10 µM)",1,0.662,0.741,0.793,0.515,0.287,1,0.835,0.744,0.288,0.875,0.987,0.474,0.879,0.963,0.272,0.661,0.836,0.434,0.848
"C[C@@H](Nc1cc(F)cc(F)c1)c1cc(C(=O)N(C)C)cc2c(=O)cc(N3CCOCC3)oc12 [AZD8186] + C1CN(CCC1(C(=O)N[C@@H](CCO)C2=CC=C(C=C2)Cl)N)C3=NC=NC4=C3C=CN4 [AZD5363] (first compound max 10 µM, 7x7, partner max 10 µM)",0.989,0.7,0.562,0.115,0.116,0.198,0.411,0.496,0.318,0.201,0.4,0.54,0.254,0.336,0.26,0.103,0.394,0.442,0.542,0.358
"C[C@@H](Nc1cc(F)cc(F)c1)c1cc(C(=O)N(C)C)cc2c(=O)cc(N3CCOCC3)oc12 [AZD8186] + CC(=O)c1c(C)c2cnc(Nc3ccc(N4CCNCC4)cn3)nc2n(C2CCCC2)c1=O [Palbociclib] (first compound max 10 µM, 7x7, partner max 10 µM)",0.655,0.656,0.657,0.434,0.0814,0.109,0.622,0.597,0.281,0.27,0.621,0.505,0.28,0.336,0.302,0.233,0.471,0.398,0.61,0.526
"C[C@@H](Oc1cc(-c2cnn(C3CCNCC3)c2)cnc1N)c1c(Cl)ccc(F)c1Cl [Crizotinib] + CC1=C(C(=CC=C1)Cl)NC(=O)C2=CN=C(S2)NC3=CC(=NC(=N3)C)N4CCN(CC4)CCO [Dasatinib] (first compound max 10 µM, 7x7, partner max 2 µM)",0.578,0.961,0.971,0.991,0.418,0.691,0.911,0.79,0.767,0.618,0.716,0.972,0.909,0.756,0.586,0.258,0.943,0.921,1,0.875
"C[C@@H](Oc1cc(-c2cnn(C3CCNCC3)c2)cnc1N)c1c(Cl)ccc(F)c1Cl [Crizotinib] + Cn1cnc2c(F)c(Nc3ccc(Br)cc3Cl)c(C(=O)NOCCO)cc21 [Selumetinib] (first compound max 10 µM, 7x7, partner max 10 µM)",0.578,0.512,0.427,0.98,0.0756,0.167,0.854,0.406,0.172,0.197,0.346,0.769,0.508,0.457,0.4,0.458,0.491,0.55,0.545,0.787
"CS(=O)(=O)CCNCc1ccc(-c2ccc3ncnc(Nc4ccc(OCc5cccc(F)c5)c(Cl)c4)c3c2)o1 [Lapatinib] + Cn1cnc2c(F)c(Nc3ccc(Br)cc3Cl)c(C(=O)NOCCO)cc21 [Selumetinib] (first compound max 10 µM, 7x7, partner max 10 µM)",0.373,0.69,0.25,0.936,0.287,0.149,0.46,0.775,0.933,0.193,0.306,0.956,0.58,0.332,0.347,0.397,0.426,0.379,0.341,0.416
"O=C(c1cc(Cc2n[nH]c(=O)c3ccccc23)ccc1F)N1CCN(C(=O)C2CC2)CC1 [Olaparib] + CC1(C)CCC(CN2CCN(c3ccc(C(=O)NS(=O)(=O)c4ccc(NCC5CCOCC5)c([N+](=O)[O-])c4)c(Oc4cnc5[nH]ccc5c4)c3)CC2)=C(c2ccc(Cl)cc2)C1 [Venetoclax] (first compound max 10 µM, 7x7, partner max 1 µM)",0.261,0.308,0.123,0.632,0.0615,0.171,0.209,0.251,0.102,0.129,0.0664,0.221,0.137,0.22,0.126,1,0.0709,0.247,0.0675,0.395
"O=C(c1cc(Cc2n[nH]c(=O)c3ccccc23)ccc1F)N1CCN(C(=O)C2CC2)CC1 [Olaparib] + CN(CC[C@H](CSC1=CC=CC=C1)NC2=C(C=C(C=C2)S(=O)(=O)NC(=O)C3=CC=C(C=C3)N4CCC(CC4)[C@H](C5=CC=CC=C5C6=CC=C(C=C6)Cl)O)S(=O)(=O)C(F)(F)F)CCO [AZD4320] (first compound max 10 µM, 7x7, partner max 1 µM)",0.83,0.62,0.251,0.831,0.215,0.321,0.986,0.22,0.257,0.546,0.188,0.352,0.379,0.277,0.404,1,0.136,0.409,0.289,0.382
